≈ marks a conversion by molar mass, not a printed value. Read-outs that look alike come from different tables or passages of the source.
Assays:
Format in all cases: cell-based
[1] = system: Mycoplasma gallisepticum 34159; assay: MIC, conventional broth-dilution microtiter test; conditions: Mycoplasmoides gallisepticum
Method: (§1) Certain of the derivatives are active against some gram-negative bacteria, such as Pasteurella species. The MIC's in Table II were determined by standard agar-dilution assays. The MIC's in Table III were obtained using a conventional broth-dilution microtiter test.

[2] = system: Mycoplasma gallisepticum 41313; assay: MIC, conventional broth-dilution microtiter test; conditions: Mycoplasmoides gallisepticum
Method: as §1

Mycoplasma gallisepticum = assay: MIC, conventional broth-dilution microtiter test; conditions: Mycoplasmoides gallisepticum
Method: as §1

Mycoplasma hyorhinis = assay: MIC, conventional broth-dilution microtiter test
Method: as §1

Mycoplasma synoviae = assay: MIC, conventional broth-dilution microtiter test; conditions: Mycoplasmopsis synoviae
Method: as §1

[3] = system: Pasteurella hemolytica 22C; assay: MIC, conventional broth-dilution microtiter test; conditions: broth-dilution microtiter; Pasteurella hemolytica 22C; read-out: MIC
Method: as §1

[4] = system: Pasteurella hemolytica 23C; assay: MIC, conventional broth-dilution microtiter test; conditions: broth-dilution microtiter; Pasteurella hemolytica 23C; read-out: MIC
Method: as §1

[5] = system: Pasteurella hemolytica 41D; assay: MIC, conventional broth-dilution microtiter test; conditions: broth-dilution microtiter; Pasteurella hemolytica 41D; read-out: MIC
Method: as §1

[6] = system: Pasteurella multocida 17E; assay: MIC, conventional broth-dilution microtiter test; conditions: broth-dilution microtiter; Pasteurella multocida 17E, Bovine isolate; read-out: MIC
Method: as §1

[7] = system: Pasteurella multocida 22A; assay: MIC, conventional broth-dilution microtiter test; conditions: broth-dilution microtiter; Pasteurella multocida 22A; read-out: MIC
Method: as §1

[8] = system: Pasteurella multocida 40G; assay: MIC, conventional broth-dilution microtiter test; conditions: broth-dilution microtiter; Pasteurella multocida 40G; read-out: MIC
Method: as §1

[9] = system: Pasteurella multocida 60A; assay: MIC, conventional broth-dilution microtiter test; conditions: broth-dilution microtiter; Pasteurella multocida 60A, Avian isolate; read-out: MIC
Method: as §1

[10] = system: Pasteurella multocida 68C; assay: MIC, conventional broth-dilution microtiter test; conditions: broth-dilution microtiter; Pasteurella multocida 68C; read-out: MIC
Method: as §1

Staphylococcus aureus = assay: MIC, conventional broth-dilution microtiter test; conditions: broth-dilution microtiter, read-out: MIC
Method: as §1

Streptococcus sp. 80 = assay: MIC, conventional broth-dilution microtiter test
Method: as §1

Escherichia coli EC14 = assay: MIC, standard agar-dilution assay; conditions: agar-dilution; Escherichia coli EC14; read-out: MIC
Method: as §1

Escherichia coli TEM = assay: MIC, standard agar-dilution assay; conditions: agar-dilution; Escherichia coli TEM; read-out: MIC
Method: as §1

[11] = system: Klebsiella pneumoniae KAE; assay: MIC, standard agar-dilution assay; conditions: agar-dilution; Klebsiella pneumoniae KAE; read-out: MIC
Method: as §1

[12] = system: Klebsiella pneumoniae X26; assay: MIC, standard agar-dilution assay; conditions: agar-dilution; Klebsiella pneumoniae X26; read-out: MIC
Method: as §1

[13] = system: Staphylococcus aureus V41; assay: MIC, standard agar-dilution assay
Method: as §1

[14] = system: Staphylococcus aureus X1.1; assay: MIC, standard agar-dilution assay; conditions: Staphylococcus aureus, X1.1
Method: as §1

[15] = system: Streptococcus Group D X66; assay: MIC, standard agar-dilution assay; conditions: agar-dilution; Streptococcus Group D X66; read-out: MIC
Method: as §1

[16] = system: Streptococcus pneumoniae Park I; assay: MIC, standard agar-dilution assay; conditions: agar-dilution; Streptococcus pneumoniae Park I; read-out: MIC
Method: as §1

[17] = system: Streptococcus pyogenes 9960; assay: MIC, standard agar-dilution assay; conditions: agar-dilution, Streptococcus 9960, read-out: MIC
Method: as §1

[18] = system: Streptococcus pyogenes C203; assay: MIC, standard agar-dilution assay
Method: as §1

[19] = system: Haemophilus influenzae 76; assay: MIC, standard agar-dilution assay; conditions: agar-dilution; Haemophilus influenzae 76, Ampicillin-resistant strain; read-out: MIC
Method: (§2) The MIC's in Table II were determined by standard agar-dilution assays. The MIC's in Table III were obtained using a conventional broth-dilution microtiter test.

[20] = system: Haemophilus influenzae C.L.; assay: MIC, standard agar-dilution assay; conditions: agar-dilution; Haemophilus influenzae C.L., Ampicillin-sensitive strain; read-out: MIC
Method: as §2

[21] = system: Staphylococcus aureus X400; assay: MIC, standard agar-dilution assay; conditions: Staphylococcus aureus, X400
Method: as §2

[22] = system: Staphylococcus epidermidis EPI2; assay: MIC, standard agar-dilution assay; conditions: agar-dilution; Staphylococcus epidermidis EPI2; read-out: MIC
Method: as §2

[23] = system: Staphylococcus aureus S13E; assay: microbe, parasite or virus in culture
Method: as §2

[24] = system: Staphylococcus epidermidis EPI1; assay: microbe, parasite or virus in culture
Method: as §2

[25] = broth-dilution microtiter, Mycoplasma gallisepticum 34159, Resistant strain, read-out: MIC
[26] = broth-dilution microtiter, Mycoplasma gallisepticum 41313, Resistant strain, read-out: MIC
[27] = broth-dilution microtiter, Mycoplasma gallisepticum, read-out: MIC
[28] = broth-dilution microtiter, Mycoplasma hyorhinis, read-out: MIC
[29] = broth-dilution microtiter, Streptococcus sp. 80, read-out: MIC

Row | SMILES | MIC [1, 25] [µg/mL] | MIC [2, 26] [µg/mL] | MIC (Mycoplasma gallisepticum; [27]) [µg/mL] | MIC (Mycoplasma hyorhinis; [28]) [µg/mL] | MIC [3] [µg/mL] | MIC [4] [µg/mL] | MIC [5] [µg/mL] | MIC [6] [µg/mL] | MIC [7] [µg/mL] | MIC [8] [µg/mL] | MIC [9] [µg/mL] | MIC [10] [µg/mL] | MIC (Staphylococcus aureus) [µg/mL] | MIC (Streptococcus sp. 80; [29]) [µg/mL] | MIC (Escherichia coli EC14) [µg/mL] | MIC (Escherichia coli TEM) [µg/mL] | MIC [11] [µg/mL] | MIC [12] [µg/mL] | MIC [14] [µg/mL] | MIC [15] [µg/mL] | other results
1 | CCC1CC(C)C(=O)C=CC(C)=CC(CN2CCCCCCC2)C(CC)OC(=O)CC(O)C(C)C1OC1OC(C)C(OC(C)=O)C(N(C)C)C1OC(C)=O (stereo not drawn) [Compound 57] | 50 (≈ 65.5 µM) | 50 (≈ 65.5 µM) | 0.78 (≈ 1.02 µM) | > 50 | 0.78 (≈ 1.02 µM) | 1.56 (≈ 2.04 µM) | 0.78 (≈ 1.02 µM) | 1.56 (≈ 2.04 µM) | 1.56 (≈ 2.04 µM) | 1.56 (≈ 2.04 µM) | 1.56 (≈ 2.04 µM) | 0.78 (≈ 1.02 µM) | 0.39 (≈ 0.511 µM) | 0.195 (≈ 0.256 µM) |  |  |  |  |  |  | MIC (Mycoplasma synoviae): 12.5 µg/mL (≈ 16.4 µM)
2 | CCC1OC(=O)CC(O)C(C)C(OC2OC(C)C(OC3CC(C)(O)C(O)C(C)O3)C(N(C)C)C2O)C(CCN2C(=O)c3ccccc3C2=O)CC(C)C(=O)C=CC(C)=CC1CN1C(=O)c2ccccc2C1=O (stereo not drawn) [Compound 38, 20,23-Di-N-phthalimido-20,23-dideoxy-20-dihydro-DMT] |  |  |  |  | > 50 | > 50 | > 50 | > 50 | > 50 | > 50 | > 50 | > 50 | 25 (≈ 24.9 µM) |  | > 128 | > 128 | > 128 | > 128 | 64 (≈ 63.9 µM) | > 128 | MIC ([13]; agar-dilution, Staphylococcus aureus V41, Penicillin-resistant strain, read-out: MIC): 16 µg/mL (≈ 16 µM); MIC [16]: 16 µg/mL (≈ 16 µM); MIC [17]: > 128 µg/mL; MIC ([18]; agar-dilution, Streptococcus pyogenes C203, read-out: MIC): > 128 µg/mL; MIC [19]: > 128 µg/mL; MIC [20]: > 128 µg/mL; MIC [21]: 64 µg/mL (≈ 63.9 µM); MIC [22]: 16 µg/mL (≈ 16 µM); MIC [23]: 32 µg/mL (≈ 31.9 µM); MIC ([24]; Staphylococcus epidermidis, EPI1): 32 µg/mL (≈ 31.9 µM); MIC [1]; 34159: 50 µg/mL (≈ 49.9 µM); MIC [2]; 41313: 50 µg/mL (≈ 49.9 µM); MIC (Mycoplasma gallisepticum): 50 µg/mL (≈ 49.9 µM); MIC (Mycoplasma hyorhinis; Mycoplasma): 50 µg/mL (≈ 49.9 µM); MIC (Streptococcus sp. 80; Streptococcus, SP.80): 50 µg/mL (≈ 49.9 µM)
3 | CCC1OC(=O)CC(O)C(C)C(OC2OC(C)C(OC3CC(C)(O)C(O)C(C)O3)C(N(C)C)C2O)C(CCN2C(=O)c3ccccc3C2=O)CC(C)C(=O)C=CC(C)=CC1C (stereo not drawn) [Compound 26, 20-N-Phthalimido-20-deoxy-20-dihydro-DMOT] | 50 (≈ 58.3 µM) | 50 (≈ 58.3 µM) | 12.5 (≈ 14.6 µM) | 50 (≈ 58.3 µM) | > 50 | > 50 | > 50 | > 50 | > 50 | > 50 | > 50 | > 50 | > 50 | > 50 | > 128 | > 128 | > 128 | > 128 | 64 (≈ 74.7 µM) | 128 (≈ 149 µM) | MIC ([13]; Staphylococcus aureus, V41): 32 µg/mL (≈ 37.3 µM); MIC [16]: 8 µg/mL (≈ 9.33 µM); MIC [17]: > 128 µg/mL; MIC ([18]; Streptococcus pyogenes, C203): 64 µg/mL (≈ 74.7 µM); MIC [19]: > 128 µg/mL; MIC [20]: > 128 µg/mL; MIC [21]: 64 µg/mL (≈ 74.7 µM); MIC [22]: 32 µg/mL (≈ 37.3 µM); MIC [23]: 64 µg/mL (≈ 74.7 µM); MIC ([24]; agar-dilution, Staphylococcus epidermidis EPI1, read-out: MIC): 64 µg/mL (≈ 74.7 µM)
